Measured values: patent US20250270172A1, “Pyrimidine Derivatives As Modulators of the 5-HT2A Serotonin Receptor Useful For The Treatment of Disorders Related Thereto” (Arena Pharmaceuticals, Inc., priority 2020, published 2025)

Biological target: 5-HT2A (Homo sapiens (Human), UniProt P28223)
Experiment: Radioligand binding assay, [^3H]5-HT competition, 5-HT2A
Details: [^3H]5-HT radioligand, membranes of HEK293 cells expressing recombinant 5-HT2A; Ki from IC50 by Cheng-Prusoff; read-out: 5-HT2A serotonin binding Ki value

Sequence of 5-HT2A (P28223 whole entry): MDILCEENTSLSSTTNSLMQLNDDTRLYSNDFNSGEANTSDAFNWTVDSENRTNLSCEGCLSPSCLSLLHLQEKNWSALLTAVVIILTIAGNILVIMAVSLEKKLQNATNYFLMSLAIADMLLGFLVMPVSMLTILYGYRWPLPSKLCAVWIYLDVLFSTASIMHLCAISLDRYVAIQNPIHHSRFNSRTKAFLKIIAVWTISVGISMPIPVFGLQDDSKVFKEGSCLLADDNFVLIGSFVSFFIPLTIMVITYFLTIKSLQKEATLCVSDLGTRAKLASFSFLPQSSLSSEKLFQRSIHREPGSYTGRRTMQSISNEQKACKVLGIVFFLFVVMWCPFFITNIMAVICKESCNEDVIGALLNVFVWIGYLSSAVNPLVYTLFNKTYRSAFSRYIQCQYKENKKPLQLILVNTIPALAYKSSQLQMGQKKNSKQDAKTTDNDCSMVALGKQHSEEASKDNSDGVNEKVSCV

For `Cc1ncnc(C)c1-c1cc(NC(=O)C2CC2)ccc1O[C@@H]1CCNC1` [Compound 403, N-[3-(4,6-dimethylpyrimidin-5-yl)-4-[(3R)-pyrrolidin-3-yl]oxy-phenyl]cyclopropanecarboxamide], the Ki was 24.9 nM.
With `Cc1ncnc(C)c1-c1cc(NC(=O)C2CC2)ccc1O[C@H]1CCNC1` [Compound 404, (S)—N-(3-(4,6-dimethylpyrimidin-5-yl)-4-(pyrrolidin-3-yloxy)phenyl)cyclopropanecarboxamide] the Ki was 69.2 nM.
In the case of `Cc1ncnc(C)c1-c1cc(NC(=O)C2CC2)ccc1OC[C@H]1CCN1` [Compound 405, N-[4-[[(2R)-azetidin-2-yl]methoxy]-3-(4,6-dimethylpyrimidin-5-yl)phenyl]cyclopropanecarboxamide], the Ki is reported as 52.4 nM.
Work on `Cc1ncnc(C)c1-c1cc(NC(=O)C2CC2)ccc1OC[C@@H]1CCN1` [Compound 406, (S)—N-(4-(azetidin-2-ylmethoxy)-3-(4,6-dimethylpyrimidin-5-yl)phenyl)cyclopropanecarboxamide] yielded a Ki of 57 nM.
`Cc1ncnc(C)c1-c1cc(NC(=O)C2CC2)ccc1OC[C@@H]1CCCN1` [Compound 407, N-[3-(4,6-dimethylpyrimidin-5-yl)-4-[[(2S)-pyrrolidin-2-yl]methoxy]phenyl]cyclopropanecarboxamide] showed a Ki of 168 nM.
`Cc1ncnc(C)c1-c1cc(NC(=O)C2CC2)ccc1OC[C@H]1CCCN1` [Compound 408, (R)—N-(3-(4,6-dimethylpyrimidin-5-yl)-4-(pyrrolidin-2-ylmethoxy)phenyl)cyclopropanecarboxamide] was tested, and the Ki was 29.9 nM.
For `Cc1ncnc(C)c1-c1cc(NC(=O)[C@H]2C[C@H]2F)ccc1O[C@@H]1CCCNC1` [Compound 410, (1R,2R)—N-(3-(4,6-dimethylpyrimidin-5-yl)-4-(((R)-piperidin-3-yl)oxy)phenyl)-2-fluorocyclopropane-1-carboxamide], the Ki was 37.4 nM.
With `Cc1ncnc(C)c1-c1cc(NC(=O)[C@@H]2C[C@@H]2F)ccc1O[C@@H]1CCCNC1` [Compound 411, (1S,2S)—N-(3-(4,6-dimethylpyrimidin-5-yl)-4-(((R)-piperidin-3-yl)oxy)phenyl)-2-fluorocyclopropane-1-carboxamide] the Ki was 12.8 nM.
`Cc1ncsc1C(=O)Nc1ccc(O[C@@H]2CCCNC2)c(-c2c(C)ncnc2C)c1` [Compound 412, (R)—N-(3-(4,6-dimethylpyrimidin-5-yl)-4-(piperidin-3-yloxy)phenyl)-4-methylthiazole-5-carboxamide] was tested, and the Ki was 20 nM.
Molecule `Cc1nc(C)c(C(=O)Nc2ccc(O[C@@H]3CCCNC3)c(-c3c(C)ncnc3C)c2)s1` [Compound 413, (R)—N-(3-(4,6-dimethylpyrimidin-5-yl)-4-(piperidin-3-yloxy)phenyl)-2,4-dimethylthiazole-5-carboxamide] has a Ki of 255 nM.
Work on `Cc1cnoc1C(=O)Nc1ccc(O[C@@H]2CCCNC2)c(-c2c(C)ncnc2C)c1` [Compound 414, (R)—N-(3-(4,6-dimethylpyrimidin-5-yl)-4-(piperidin-3-yloxy)phenyl)-4-methylisoxazole-5-carboxamide] yielded a Ki of 91 nM.
`Cc1ncoc1C(=O)Nc1ccc(O[C@@H]2CCCNC2)c(-c2c(C)ncnc2C)c1` [Compound 415, (R)—N-(3-(4,6-dimethylpyrimidin-5-yl)-4-(piperidin-3-yloxy)phenyl)-4-methyloxazole-5-carboxamide] gave a Ki of 101 nM.
For `Cc1ncnc(C)c1-c1cc(NC(=O)c2cccn2C)ccc1O[C@@H]1CCCNC1` [Compound 416, (R)—N-(3-(4,6-dimethylpyrimidin-5-yl)-4-(piperidin-3-yloxy)phenyl)-1-methyl-1H-pyrrole-2-carboxamide], the Ki was 45.3 nM.
`Cc1ncnc(C)c1-c1cc(NC(=O)c2ccnn2C)ccc1O[C@@H]1CCCNC1` [Compound 417, (R)—N-(3-(4,6-dimethylpyrimidin-5-yl)-4-(piperidin-3-yloxy)phenyl)-1-methyl-1H-pyrazole-5-carboxamide] was tested, and the Ki was 40.3 nM.
`Cc1ncnc(C)c1-c1cc(NC(=O)C2CC2)ccc1O[C@@H]1CCCNC1` [Compound 418, (R)—N-(3-(4,6-dimethylpyrimidin-5-yl)-4-(piperidin-3-yloxy)phenyl)cyclopropanecarboxamide] was tested, and the Ki was 7.29 nM.
